Format in all cases: biochemical
For test [1], the target named is T1, Human recombinant MMP-14 (Homo sapiens, UniProt P50281).
T1 construct: The catalytic domain enzyme was expressed in E. coli inclusion bodies, solubilized in urea; made in house
The experiment in a line: In vitro MMP inhibition, IC50 determination (fluorogenic substrate I). The gist of the method:
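IC50 came from reduced fluorescence (ex 328 nm, em 415 nm) as inhibitor concentration rose, with 4 μM substrate I cleaved at Gly-Leu. Room-temperature incubation in pH 7.5 Tris buffer with 10 mM CaCl2; the E. coli-expressed, refolded MMP-14 catalytic domain was activated with trypsin or APMA.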

Another test deals with T2, Human recombinant MMP-1 (Homo sapiens, UniProt P03956).
T2 construct: made in house; host or cells: MMP-1-transfected HT-1080 cells (spent media)
T2 sequence (P03956 100-469): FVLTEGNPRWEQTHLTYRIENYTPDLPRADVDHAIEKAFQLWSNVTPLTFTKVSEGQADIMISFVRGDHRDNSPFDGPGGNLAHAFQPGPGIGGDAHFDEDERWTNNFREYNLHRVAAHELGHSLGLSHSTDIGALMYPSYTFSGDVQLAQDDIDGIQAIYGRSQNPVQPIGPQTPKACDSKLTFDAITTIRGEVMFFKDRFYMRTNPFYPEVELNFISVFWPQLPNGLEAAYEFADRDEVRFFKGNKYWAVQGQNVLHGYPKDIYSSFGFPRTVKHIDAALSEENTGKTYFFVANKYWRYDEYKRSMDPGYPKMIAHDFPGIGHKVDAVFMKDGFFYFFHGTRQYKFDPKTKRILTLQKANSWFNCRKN
Briefly: In vitro MMP inhibition, Ki determination (fluorogenic substrate II). Summed up:
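Activated human recombinant MMP-1 (APMA- or trypsin-activated; proenzyme from transfected HT-1080 cells) incubated 1 hr at room temperature with 4 μM MCA/Dpa fluorogenic substrate II at or below Km in Tris buffer pH 7.5 with CaCl2. Fluorescence ex 330/em 420 nm; Ki from Morrison-equation non-linear regression, uncorrected for substrate.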

Another test addresses T3, Human recombinant MMP-9 (Homo sapiens, UniProt P14780).
T3 construct: made in house; host or cells: MMP-9-transfected HT1080 cells (spent media)
The description is as above. Summed up: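 MMP-9 proenzyme purified from transfected HT1080 cell media, activated with APMA, trypsin or recombinant MMP-3; hydroxamates diluted in pH 7.5 Tris/NaCl/CaCl2 buffer. Cleavage of 4 μM MCA/Dpa substrate II followed by fluorescence (ex 330/em 420 nm), 1 h at room temperature. Ki from Morrison-equation fit, substrate at/below Km, uncorrected.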

In test [2] the target is T1, Human recombinant MMP-14. Described as above. Summed up:
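Refolded E. coli-expressed MMP-14 catalytic domain, APMA- or trypsin-activated, incubated 1 h at room temperature with 4 μM fluorogenic substrate II in pH 7.5 Tris/NaCl/CaCl2 buffer; fluorescence read at 330/420 nm. Ki from Morrison-equation non-linear regression, substrate at or below Km, uncorrected for substrate.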

A value given as a limit tells only on which side of the number the result lay.

T3 sequence (P14780 107-707 limits assumed): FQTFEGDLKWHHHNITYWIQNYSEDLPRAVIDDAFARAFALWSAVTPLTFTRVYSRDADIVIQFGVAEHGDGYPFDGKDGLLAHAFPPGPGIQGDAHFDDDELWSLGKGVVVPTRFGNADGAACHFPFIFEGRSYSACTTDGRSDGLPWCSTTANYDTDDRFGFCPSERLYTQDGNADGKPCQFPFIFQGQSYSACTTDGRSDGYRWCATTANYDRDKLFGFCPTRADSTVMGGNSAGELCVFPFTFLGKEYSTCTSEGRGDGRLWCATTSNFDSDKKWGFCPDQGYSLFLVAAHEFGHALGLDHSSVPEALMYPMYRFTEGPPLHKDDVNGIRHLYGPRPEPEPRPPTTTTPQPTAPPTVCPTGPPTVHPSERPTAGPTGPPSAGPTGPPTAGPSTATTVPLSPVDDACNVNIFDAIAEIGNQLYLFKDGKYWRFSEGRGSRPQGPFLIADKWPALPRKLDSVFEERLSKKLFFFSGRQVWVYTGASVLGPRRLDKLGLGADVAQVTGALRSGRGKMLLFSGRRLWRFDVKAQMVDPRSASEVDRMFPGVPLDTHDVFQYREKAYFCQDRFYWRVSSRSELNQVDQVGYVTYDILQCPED

Consider `O=C(NO)C1(S(=O)(=O)c2ccc(OCCCc3ccnc(-c4ccccc4)c3)cc2)CCOCC1` [Example 197], for which the IC50 on Human recombinant MMP-14 [1] (value outside parenthesis) is greater than 10 µM. Also, the inhibition constant (Ki) was greater than 10 µM on Human recombinant MMP-1 (value in parenthesis), 0.334 µM at Human recombinant MMP-9 (value in parenthesis) and greater than 10 µM on Human recombinant MMP-14 [2] (value in parenthesis).

Turning to `O=C(CCCc1ccc(S(=O)(=O)C2(C(=O)NO)CCOCC2)cc1)c1cccc(-c2ccccc2)c1` [Example 219], on Human recombinant MMP-14 [1] (value outside parenthesis), the IC50 was greater than 10 µM. The values for the Ki on Human recombinant MMP-1 (value in parenthesis), at Human recombinant MMP-9 (value in parenthesis) and at Human recombinant MMP-14 [2] (value in parenthesis) were 5.6 µM, 0.0595 µM and 7.94 µM, respectively.

Regarding `O=C(CCCOc1ccc(S(=O)(=O)C2(C(=O)NO)CCOCC2)cc1)Nc1ccc(OC(F)(F)F)cc1` [Example 228], the IC50 at Human recombinant MMP-14 [1] (value outside parenthesis) was greater than 10 µM. The figures for the Ki at Human recombinant MMP-1 (value in parenthesis), at Human recombinant MMP-9 (value in parenthesis) and on Human recombinant MMP-14 [2] (value in parenthesis) were 3.94 µM, 0.247 µM and 6.29 µM, respectively.

`Cc1cc(OC(F)(F)F)ccc1NC(=O)CCCOc1ccc(S(=O)(=O)C2(C(=O)NO)CCOCC2)cc1` [Example 229]: on Human recombinant MMP-14 [1] (value outside parenthesis), the IC50 is greater than 10 µM. For the same molecule, the Ki came to 0.955 µM at Human recombinant MMP-1 (value in parenthesis), 0.281 µM on Human recombinant MMP-9 (value in parenthesis) and 7.87 µM on Human recombinant MMP-14 [2] (value in parenthesis).

As for `COc1ccc(/C(C#N)=C/CCCOc2ccc(S(=O)(=O)C3(C(=O)NO)CCN(C4CC4)CC3)cc2)cc1` [Example 233], the IC50 on Human recombinant MMP-14 [1] (value outside parenthesis) is greater than 10 µM. The values for the Ki at Human recombinant MMP-1 (value in parenthesis), at Human recombinant MMP-9 (value in parenthesis) and at Human recombinant MMP-14 [2] (value in parenthesis) were greater than 10 µM, 0.509 µM and greater than 10 µM, respectively.

As for `CN(C(=O)CCCOc1ccc(S(=O)(=O)C2(C(=O)NO)CCOCC2)cc1)c1ccc(OC(F)(F)F)cc1` [Example 249], at Human recombinant MMP-14 [1] (value outside parenthesis), the IC50 was greater than 10 µM. Further, the Ki on Human recombinant MMP-1 (value in parenthesis) was greater than 10 µM; at Human recombinant MMP-9 (value in parenthesis), 1.49 µM; at Human recombinant MMP-14 [2] (value in parenthesis) it was greater than 10 µM.

Consider `O=C(CCCOc1ccc(S(=O)(=O)C2(C(=O)NO)CCOCC2)cc1)Nc1ccc(OC(F)(F)F)cc1` [Example 250], for which the IC50 at Human recombinant MMP-14 [1] (value outside parenthesis) was 7.63 µM. In addition, the inhibitory constant (Ki) at Human recombinant MMP-1 (value in parenthesis) stood at 1.44 µM; at Human recombinant MMP-9 (value in parenthesis), 0.0125 µM; at Human recombinant MMP-14 [2] (value in parenthesis) it was 1.7 µM.

Regarding `Cc1cc(NC(=O)CCCOc2ccc(S(=O)(=O)C3(C(=O)NO)CCOCC3)cc2)ccc1OC(C)C` [Example 290], on Human recombinant MMP-14 [1] (value outside parenthesis), the 50% inhibitory concentration (IC50) was greater than 10 µM. For the same molecule, the Ki on Human recombinant MMP-1 (value in parenthesis), at Human recombinant MMP-9 (value in parenthesis) and at Human recombinant MMP-14 [2] (value in parenthesis) was greater than 10 µM throughout.

As to `O=C(NO)C1(S(=O)(=O)c2ccc(OCCCc3cncc(-c4ccc(F)cc4)c3)cc2)CCOCC1` [Example 523], the IC50 at Human recombinant MMP-14 [1] (value outside parentheses) was greater than 10 µM. The results for the Ki at Human recombinant MMP-1 (value in parentheses), at Human recombinant MMP-9 (value in parentheses) and on Human recombinant MMP-14 [2] (value in parentheses) were 3.21 µM, 1.25 µM and greater than 10 µM, respectively.

With `O=C(NO)C1(S(=O)(=O)c2ccc(OCCCc3cc(-c4ccc(F)cc4F)cs3)cc2)CCOCC1` [Example 587], on Human recombinant MMP-14 [1] (value outside parentheses), the IC50 was greater than 10 µM. Moreover, the Ki at Human recombinant MMP-1 (value in parentheses) was greater than 10 µM; on Human recombinant MMP-9 (value in parentheses), 8.18 µM; at Human recombinant MMP-14 [2] (value in parentheses) it was 4.15 µM.

`CCN1CCC(C(=O)NO)(S(=O)(=O)c2ccc(OCCCSc3nc4ccccc4s3)cc2)CC1` [Example 591]: at Human recombinant MMP-14 [1] (value outside parentheses), the IC50 was greater than 10 µM. Moreover, the Ki on Human recombinant MMP-1 (value in parentheses) is greater than 10 µM; on Human recombinant MMP-9 (value in parentheses), 0.00422 µM; at Human recombinant MMP-14 [2] (value in parentheses), 8.74 µM.

As to `O=C(Cc1csc2ccccc12)NCCOc1ccc(S(=O)(=O)C2(C(=O)NO)CCOCC2)cc1` [Example 596], the IC50 at Human recombinant MMP-14 [1] (value outside parentheses) worked out at 2.49 µM. Moreover, the values for the Ki at Human recombinant MMP-1 (value in parentheses), at Human recombinant MMP-9 (value in parentheses) and on Human recombinant MMP-14 [2] (value in parentheses) were greater than 10 µM, 0.308 µM and 1.16 µM, respectively.

`O=C(NO)C1(S(=O)(=O)c2ccc(OCCCc3cc(-c4ccc(OC(F)(F)F)cc4)cs3)cc2)CCOCC1` [Example 608]: the IC50 on Human recombinant MMP-14 [1] (value outside parentheses) was greater than 10 µM. Moreover, the values for the inhibition constant (Ki) at Human recombinant MMP-1 (value in parentheses), at Human recombinant MMP-9 (value in parentheses) and on Human recombinant MMP-14 [2] (value in parentheses) were greater than 10 µM, 1.37 µM and greater than 10 µM, respectively.

For `N#Cc1ccc(-c2cccc(CCCOc3ccc(S(=O)(=O)C4(C(=O)NO)CCOCC4)cc3)c2)cc1` [Example 624], the IC50 at Human recombinant MMP-14 [1] (value outside parentheses) is greater than 10 µM. Moreover, the Ki is greater than 10 µM at Human recombinant MMP-1 (value in parentheses), 0.443 µM on Human recombinant MMP-9 (value in parentheses) and 7.58 µM at Human recombinant MMP-14 [2] (value in parentheses).

Take `O=C(NO)C1(S(=O)(=O)c2ccc(OCCCc3cccc(-c4ccc([N+](=O)[O-])cc4)c3)cc2)CCOCC1` [Example 626]: the IC50 at Human recombinant MMP-14 [1] (value outside parentheses) was greater than 10 µM. Also, the Ki is greater than 10 µM on Human recombinant MMP-1 (value in parentheses), 1.1 µM on Human recombinant MMP-9 (value in parentheses) and greater than 10 µM at Human recombinant MMP-14 [2] (value in parentheses).

Take `O=C(NO)C1(S(=O)(=O)c2ccc(OCCCc3cccc(-c4ccc5c(c4)OCO5)c3)cc2)CCOCC1` [Example 628]: the IC50 on Human recombinant MMP-14 [1] (value outside parentheses) was greater than 10 µM. Also, the Ki on Human recombinant MMP-1 (value in parentheses) is greater than 10 µM; at Human recombinant MMP-9 (value in parentheses) it was 1.93 µM; on Human recombinant MMP-14 [2] (value in parentheses) it was greater than 10 µM.

As to `O=C(NO)C1(S(=O)(=O)c2ccc(OCCCc3cccc(-c4ccc(F)cc4F)c3)cc2)CCOCC1` [Example 630], the 50% inhibitory concentration (IC50) on Human recombinant MMP-14 [1] (value outside parentheses) was greater than 10 µM. Also, the values for the Ki at Human recombinant MMP-1 (value in parentheses), at Human recombinant MMP-9 (value in parentheses) and at Human recombinant MMP-14 [2] (value in parentheses) were greater than 10 µM, 2.28 µM and greater than 10 µM, respectively.

For `O=C(NO)C1(S(=O)(=O)c2ccc(OCCCc3cccc(-c4ccsc4)c3)cc2)CCOCC1` [Example 632], on Human recombinant MMP-14 [1] (value outside parentheses), the half-inhibitory concentration (IC50) was greater than 10 µM. Besides, the Ki on Human recombinant MMP-1 (value in parentheses) was greater than 10 µM; at Human recombinant MMP-9 (value in parentheses), 0.716 µM; at Human recombinant MMP-14 [2] (value in parentheses), greater than 10 µM.

As to `O=C(NO)C1(S(=O)(=O)c2ccc(OCCCc3cccc(-c4ccoc4)c3)cc2)CCOCC1` [Example 637], on Human recombinant MMP-14 [1] (value outside parentheses), the IC50 is greater than 10 µM. Also, the Ki was greater than 10 µM at Human recombinant MMP-1 (value in parentheses), 0.881 µM at Human recombinant MMP-9 (value in parentheses) and greater than 10 µM on Human recombinant MMP-14 [2] (value in parentheses).

Values taken from US20040024024A1, “Aromatic sulfone hydroxamates and their use as protease inhibitors” (priority 2001, published 2004).
